# From ChEMBL document CHEMBL5154856, “Targeting the tumor microenvironment by an enzyme-responsive prodrug of tubulin destabilizer for triple-negative breast cancer therapy with high safety” (Eur J Med Chem, 2022)
# The source made the active and inactive calls. The calls are words filed in the database; no cut-off is given here.
# Experiments:
# [1] = Chemical stability of compound at pH 7.4 in PBS buffer at 1 mg incubated for 48 hrs by HPLC analysis; assay type: physicochemical; settings: pH 7.4, 48 h
# [2] = Chemical stability of compound at pH 7.4 in bovine serum at 1 mg incubated for 48 hrs by HPLC analysis; assay type: ADME, cell-free; settings: cattle, pH 7.4, 48 h
# [3] = Stability of compound in phosphate buffer at pH 7.4 assessed as Escherichia coli beta-glucuronidase mediated compound cleavage at 1.2 mg measured after 30 mins by HPLC analysis; assay type: ADME; settings: pH 7.4, 0.5 h
# HeLa [4] = assay: Antiproliferative activity against human HeLa cells assessed as inhibition of cell growth incubated for 48 hrs in absence of beta-glucuronidase by MTT assay; assay type: functional, cell-based
# MDA-MB-231 [5] = assay: Antiproliferative activity against human MDA-MB-231 cells assessed as inhibition of cell growth incubated for 48 hrs in absence of beta-glucuronidase by MTT assay; assay type: functional, cell-based; settings: MDA-MB-231, 48 h
# SK-OV-3 [6] = assay: Antiproliferative activity against human SK-OV-3 cells assessed as inhibition of cell growth incubated for 48 hrs in absence of beta-glucuronidase by MTT assay; assay type: functional, cell-based; settings: SK-OV-3, 48 h
# HeLa [7] = assay: Antiproliferative activity against human HeLa cells assessed as inhibition of cell growth incubated for 48 hrs in presence of beta-glucuronidase by MTT assay; assay type: functional, cell-based
# MDA-MB-231 [8] = assay: Antiproliferative activity against human MDA-MB-231 cells assessed as inhibition of cell growth incubated for 48 hrs in presence of beta-glucuronidase by MTT assay; assay type: functional, cell-based; settings: MDA-MB-231, 48 h
# SK-OV-3 [9] = assay: Antiproliferative activity against human SK-OV-3 cells assessed as inhibition of cell growth incubated for 48 hrs in presence of beta-glucuronidase by MTT assay; assay type: functional, cell-based; settings: SK-OV-3, 48 h
# MCF7 = assay: Antiproliferative activity against human MCF7 cells assessed as inhibition of cell growth incubated for 48 hrs in presence of beta-glucuronidase by MTT assay; assay type: functional, cell-based; settings: MCF7, 48 h
# [10] = Metabolic stability in rat liver microsomes assessed as half life at 10 mM measured up to 60 mins in presence of NADPH by LC-MS/MS analysis; assay type: ADME, Microsome
# [11] = Metabolic stability in rat liver microsomes assessed as intrinsic clearance in microsomes at 10 mM measured up to 60 mins in presence of NADPH by LC-MS/MS analysis; assay type: ADME, Microsome; settings: read-out: CLH
# [12] = Metabolic stability in rat liver microsomes assessed as intrinsic clearance in liver at 10 mM measured up to 60 mins in presence of NADPH by LC-MS/MS analysis; assay type: ADME, Microsome; settings: read-out: CLH
# [13] = Metabolic stability in rat liver microsomes assessed as parent compound remaining at 10 mM measured up to 60 mins in presence of NADPH by LC-MS/MS analysis; assay type: ADME, Microsome; settings: read-out: Stability
# [14] = Aqueous solubility of compound in PBS at pH 7.4 at 1 mg incubated for 10 mins by HPLC analysis; assay type: physicochemical
# [15] = Acute toxicity in BALB/c mouse assessed as lethal dose administered intravenously as single dose and measured after 14 days; settings: in vivo, route iv, time 14 day
# MDA-MB-231 [16] = assay: Antitumour activity against human MDA-MB-231 cells xenografted in nude mouse assessed as tumor growth inhibition at 40 mg/kg, iv administered every 2 days for 14 days; assay type: functional; settings: MDA-MB-231, 336 h, time 14 day, read-out: TGI
# MDA-MB-231 [17] = assay: Antitumour activity against human MDA-MB-231 cells xenografted in nude mouse assessed as reduction in tumor volume at 40 mg/kg, iv administered every 2 days for 14 days; assay type: functional, organism-based; settings: time 14.0 day
# [18] = Toxicity in nude mouse xenografted with human MDA-MB-231 cells assessed as pathological changes in spleen at 20 to 40 mg/kg, iv administered every 2 days for 14 days by H and E staining based assay; assay type: organism-based; settings: in vivo, 336 h, dose 20-40 mg/kg, time 14 day
# [19] = Toxicity in nude mouse xenografted with human MDA-MB-231 cells assessed as pathological changes in liver at 20 to 40 mg/kg, iv administered every 2 days for 14 days by H and E staining based assay; assay type: organism-based; settings: in vivo, 336 h, dose 20-40 mg/kg, time 14 day
# [20] = Toxicity in nude mouse xenografted with human MDA-MB-231 cells assessed as pathological changes in kidney at 20 to 40 mg/kg, iv administered every 2 days for 14 days by H and E staining based assay; assay type: organism-based; settings: in vivo, 336 h, dose 20-40 mg/kg, time 14 day
# [21] = Toxicity in nude mouse assessed as effect on total protein level in serum at 40 mg/kg, iv administered qd for 3 days (reference value: 47.3 g/L); assay type: organism-based; settings: in vivo, 72 h, time 3 day
# [22] = Toxicity in nude mouse assessed as effect on albumin level in serum at 40 mg/kg, iv administered qd for 3 days (reference value: 31.2 g/L); assay type: organism-based; settings: in vivo, 72 h, time 3 day
# [23] = Toxicity in nude mouse assessed as effect on globulin level in serum at 40 mg/kg, iv administered qd for 3 days (reference value: 16.1 g/L); assay type: organism-based; settings: in vivo, 72 h, time 3 day
# [24] = Toxicity in nude mouse assessed as effect on alanine aminotransferase level in serum at 40 mg/kg, iv administered qd for 3 days (reference value: 308 U/L); assay type: organism-based; settings: in vivo, 72 h, time 3 day
# [25] = Toxicity in nude mouse assessed as effect on total bilirubin level in serum at 40 mg/kg, iv administered qd for 3 days (reference value: 3.3 micromol/L); assay type: organism-based; settings: in vivo, 72 h, time 3 day
# [26] = Toxicity in nude mouse assessed as effect on white blood cell count at 40 mg/kg, iv administered qd for 3 days (reference value: 0.02 10^9/L); assay type: organism-based; settings: in vivo, 72 h, time 3 day
# [27] = Toxicity in nude mouse assessed as effect on red blood cell count at 40 mg/kg, iv administered qd for 3 days (reference value: 0.21 10^12/L); assay type: organism-based; settings: in vivo, 72 h, time 3 day
# [28] = Toxicity in nude mouse assessed as effect on platelet count at 40 mg/kg, iv administered qd for 3 days (reference value: 21 10^9/L); assay type: organism-based; settings: in vivo, 72 h, time 3 day
# [29] = Toxicity in nude mouse assessed as effect on mean corpuscular hemoglobin level at 40 mg/kg, iv administered qd for 3 days (reference value: 22.3 pg); assay type: organism-based; settings: in vivo, 72 h, time 3 day
# [30] = Toxicity in nude mouse assessed as effect on neutrophil level at 40 mg/kg, iv administered qd for 3 days (reference value: 7.40 %); assay type: organism-based; settings: in vivo, 72 h, time 3 day
# [31] = Toxicity in nude mouse assessed as effect on eosinophil level at 40 mg/kg, iv administered qd for 3 days (reference value: 6 %); assay type: organism-based; settings: in vivo, 72 h, time 3 day
# [32] = Toxicity in nude mouse assessed as effect on lymphocyte level at 40 mg/kg, iv administered qd for 3 days (reference value: 60.90 %); assay type: organism-based; settings: in vivo, 72 h, time 3 day
# [33] = Toxicity in nude mouse assessed as effect on monocytes level at 40 mg/kg, iv administered qd for 3 days (reference value: 37.10 %); assay type: organism-based; settings: in vivo, 72 h, time 3 day
# [34] = Toxicity in nude mouse assessed as effect on platelet distribution width at 40 mg/kg, iv administered qd for 3 days (reference value: 20.2); assay type: organism-based; settings: in vivo, 72 h, time 3 day
# [35] = Cardiotoxicity in nude mouse assessed as abnormal spikes at 20 to 40 mg/kg, iv administered once daily for 3 days by ECG analysis; assay type: toxicity, organism-based; settings: in vivo, 72 h, dose 20-40 mg/kg, time 3 day
# [36] = Cardiotoxicity in nude mouse assessed as prolonged QT intervals at 20 to 40 mg/kg, iv administered once daily for 3 days by ECG analysis; assay type: toxicity, organism-based; settings: in vivo, 72 h, dose 20-40 mg/kg, time 3 day
structure (smiles),measurement,setting,value
COc1ccc([C@H]2[C@H](CO)C(=O)N2c2cc(OC)c(OC)c(OC)c2)cc1OCc1ccc(O[C@@H]2O[C@H](C(=O)O)[C@@H](O)[C@H](O)[C@H]2O)cc1,Stability,[1],Stable
same,Stability,[2],Stable
same,Stability,[3],Unstable
same,IC50,HeLa [4],> 50000 nM
same,IC50,MDA-MB-231 [5],> 50000 nM
same,IC50,SK-OV-3 [6],> 50000 nM
same,IC50,HeLa [7],8.9 nM
same,IC50,MDA-MB-231 [8],11.7 nM
same,IC50,SK-OV-3 [9],14.1 nM
same,IC50,MCF7,15.7 nM
same,half-life,[10],> 2.42 h
same,microsomal CLint,[11],< 9.6 µL/min/mg
same,CLint scaled,[12],< 38 mL/min/kg
same,remaining at 1 h,[13],74.9%
same,solubility at 10 min,[14],> 40 mg/mL
same,LD50 at 336 h,[15],> 500 mg/kg
same,inhibition in vivo at 40 mg/kg,MDA-MB-231 [16],63%
same,Activity,MDA-MB-231 [17],Active
same,Activity,[18],Non-Toxic
same,Activity,[19],Non-Toxic
same,Activity,[20],Non-Toxic
same,Activity,[21],45.5 g/L
same,Activity,[22],29.5 g/L
same,Activity,[23],16 g/L
same,Activity,[24],316 U/L
same,Activity,[25],3.9 µmol/L
same,Activity,[26],0.12 10^9/L
same,Activity,[27],0.31 10^12/L
same,Activity,[28],43 10^9/L
same,Activity,[29],22.3 pg
same,Activity,[30],7.9%
same,Activity,[31],6.2%
same,Activity,[32],57.2%
same,Activity,[33],21.9%
same,Activity,[34],17
same,Activity,[35],Non-Toxic
same,Activity,[36],Non-Toxic
